Literature values in patent publication US11185497B2, “Intranasal delivery of dihydroergotamine by precision olfactory device” (Impel Neuropharma, Inc., priority 2018, dated 2021).

Conditions: in vivo

**Q.** Which oral bioavailability does the source give for CN1C[C@H](C(=O)N[C@]2(C)O[C@@]3(O)[C@@H]4CCCN4C(=O)[C@H](Cc4ccccc4)N3C2=O)C[C@@H]2c3cccc4[nH]cc(c34)C[C@H]21 [DHE, Dihydroergotamine] here?
**A.** Its oral bioavailability is “poor”.
